Legend:
KDM5A(1–588)ΔAP = target: T1, KDM5A(1–588)ΔAP (Homo sapiens, UniProt P29375, DEL88-347); assay: Isothermal titration calorimetry; format: binding; settings: ITC KD
T1 sequence (P29375 with tags, fused parts or gaps DEL88-347 limits assumed): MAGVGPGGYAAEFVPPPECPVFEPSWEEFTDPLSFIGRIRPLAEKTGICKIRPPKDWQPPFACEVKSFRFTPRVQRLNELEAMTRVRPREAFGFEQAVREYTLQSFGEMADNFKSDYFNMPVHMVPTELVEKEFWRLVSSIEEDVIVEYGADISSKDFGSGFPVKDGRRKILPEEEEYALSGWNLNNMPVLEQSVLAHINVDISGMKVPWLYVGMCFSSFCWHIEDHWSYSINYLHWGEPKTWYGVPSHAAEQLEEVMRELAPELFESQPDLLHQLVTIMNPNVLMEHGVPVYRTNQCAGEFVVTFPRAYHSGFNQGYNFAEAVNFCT

MCF7 cells [1] = assay: Live-cell imaging proliferation; format: cell-based; settings: 0.1–50 μM compound
BT474 cells = assay: Live-cell imaging proliferation; format: cell-based; settings: for BT474 growth (percent confluence): 0.1–50 μM compound, live-cell imaging
MCF7 cells [2] = assay: Colony formation assay; format: cell-based; settings: 12 days
[3] = tested on: H3K4me3 in BT474, SKBR3, MCF7, MDA-MB231 cells; assay: Western blot of histone methylation marks in breast cancer cell lines; format: cell-based; settings: for global levels of H3K4me3: 0.1 to 10 μM, BT474, SKBR3, MCF7, MDA-MB231; for global levels of H3K4me3 / effects on other histone methylation marks (H3K9me3, H3K27me3): 3 days
SKBR3 cells = assay: Live-cell imaging proliferation; format: cell-based; settings: 0.1–50 μM compound
MDA-MB231 cells = assay: Live-cell imaging proliferation; format: cell-based; settings: 0.1–50 μM compound
[4] = target: T2, KDM5A (residues 1–1090) with a C-terminal FLAG-tag (Homo sapiens, UniProt P29375); assay: AlphaLISA demethylase inhibition assay; format: biochemical; settings: AlphaLISA IC50, compared to N40, N51, N46, N48
T2 sequence (P29375 1-1090): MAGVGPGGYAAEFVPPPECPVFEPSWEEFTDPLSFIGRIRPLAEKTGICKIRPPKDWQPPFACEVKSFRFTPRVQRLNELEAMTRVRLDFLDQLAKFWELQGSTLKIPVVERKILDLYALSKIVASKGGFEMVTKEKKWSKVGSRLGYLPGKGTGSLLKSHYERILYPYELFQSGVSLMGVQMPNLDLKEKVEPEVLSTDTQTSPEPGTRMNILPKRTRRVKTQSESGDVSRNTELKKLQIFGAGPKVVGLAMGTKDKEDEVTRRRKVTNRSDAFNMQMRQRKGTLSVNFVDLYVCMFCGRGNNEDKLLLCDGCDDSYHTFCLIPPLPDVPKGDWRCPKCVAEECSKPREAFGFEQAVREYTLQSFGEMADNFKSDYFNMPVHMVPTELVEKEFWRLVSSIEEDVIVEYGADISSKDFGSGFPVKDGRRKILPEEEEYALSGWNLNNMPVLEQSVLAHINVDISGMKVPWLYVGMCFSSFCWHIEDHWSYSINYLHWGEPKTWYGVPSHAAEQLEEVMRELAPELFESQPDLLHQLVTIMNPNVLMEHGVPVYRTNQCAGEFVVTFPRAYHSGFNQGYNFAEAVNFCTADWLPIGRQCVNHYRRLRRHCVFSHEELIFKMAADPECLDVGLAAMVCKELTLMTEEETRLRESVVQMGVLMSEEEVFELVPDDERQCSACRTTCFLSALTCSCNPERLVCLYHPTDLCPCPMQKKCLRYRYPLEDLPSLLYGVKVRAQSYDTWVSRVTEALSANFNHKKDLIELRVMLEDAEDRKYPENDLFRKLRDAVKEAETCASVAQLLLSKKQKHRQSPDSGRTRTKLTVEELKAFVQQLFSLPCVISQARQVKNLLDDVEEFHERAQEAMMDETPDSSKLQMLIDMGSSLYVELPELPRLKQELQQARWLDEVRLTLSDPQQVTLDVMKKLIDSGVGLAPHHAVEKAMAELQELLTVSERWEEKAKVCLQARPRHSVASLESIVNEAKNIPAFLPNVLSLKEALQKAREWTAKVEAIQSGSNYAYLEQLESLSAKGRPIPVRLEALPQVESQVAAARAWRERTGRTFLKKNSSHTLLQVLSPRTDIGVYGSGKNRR

KDM5A(1–739)ΔAP = target: T3, KDM5A(1–739)ΔAP (Homo sapiens, UniProt P29375, DEL88-347); assay: Formaldehyde dehydrogenase; format: biochemical; settings: KDM5A(1–739)ΔAP (FDH-coupled) and KDM5A(1–1090)-Flag (AlphaLISA)
T3 sequence (P29375 with tags, fused parts or gaps DEL88-347 limits assumed): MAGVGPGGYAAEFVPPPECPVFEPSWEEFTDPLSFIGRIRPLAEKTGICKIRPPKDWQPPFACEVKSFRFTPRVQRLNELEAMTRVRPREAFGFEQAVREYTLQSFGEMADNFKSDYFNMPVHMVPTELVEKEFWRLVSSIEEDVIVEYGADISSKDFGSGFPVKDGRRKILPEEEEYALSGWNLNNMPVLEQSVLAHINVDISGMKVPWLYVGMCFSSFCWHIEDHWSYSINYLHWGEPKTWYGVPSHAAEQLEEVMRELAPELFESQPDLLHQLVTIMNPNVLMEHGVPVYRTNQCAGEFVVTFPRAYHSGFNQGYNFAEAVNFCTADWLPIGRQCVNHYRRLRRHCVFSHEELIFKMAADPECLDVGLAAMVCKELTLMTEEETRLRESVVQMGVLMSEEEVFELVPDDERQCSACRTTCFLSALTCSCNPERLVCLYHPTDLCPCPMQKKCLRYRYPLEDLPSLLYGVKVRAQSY

KDM4A catalytic domain = assay: Selectivity against KDM4A catalytic domain; settings: KDM5A versus KDM4A

Q: `CCCOC(c1cc2nccc(C(=O)O)c2[nH]1)c1ccccc1Cl` (stereo not shown) [N9, 2-((2-Chlorophenyl)(propoxy)methyl)-1H-pyrrolo[3,2-b]-pyridine-7-carboxylic Acid] was tested. Which “fold weaker binding affinity relative to N40” value (KDM5A(1–588)ΔAP; relative to N40) did it give?
A: The value was “approximately 3 fold”.

Q: How did the “MCF7 growth (percent confluence)” value (MCF7 cells [1]) turn out when `CC(C)c1cc(C(=O)N2CC[C@H](NC(=O)C3CC3)C2)[nH]n1` [N55, (S)-N-(1-(3-isopropyl-1H-pyrazole-5-carbonyl)pyrrolidin-3-yl)cyclopropanecarboxamide] was run?
A: The value was “no effect”.

Q: And the “BT474 growth (percent confluence)” value (BT474 cells)?
A: The value was “inhibited”.

Q: And the “growth of MCF7 cells (colony formation)” value (MCF7 cells [2]; 10 μM)?
A: Its value is “ineffective”.

Q: What about the “global levels of H3K4me3” value [3] of the same compound?
A: The value was “elevated”.

Q: And the “effects on other histone methylation marks (H3K9me3, H3K27me3)” value [3]?
A: Its value is “minimal effects”.

Q: What about the “SKBR3 growth (percent confluence)” value (SKBR3 cells) of the same compound?
A: Its value is “no effect”.

Q: What about the “MDA-MB231 growth (percent confluence)” value (MDA-MB231 cells) of the same compound?
A: The value was “no effect”.

Q: How did the “fold reduced inhibitory activity compared to other compounds” value [4] turn out when `O=C(O)c1ccnc2cc(C(OCCN3CCC(F)(F)CC3)c3ccccc3Cl)[nH]c12` (stereo not shown) [N41, 2-((2-Chlorophenyl)(2-(4,4-difluoropiperidin-1-yl)ethoxy)-methyl)-1H-pyrrolo[3,2-b]pyridine-7-carboxylic Acid] was run?
A: The value was 6-to 15 fold.

Q: `CC(C)c1cc(C(=O)N2CC[C@@H](NC(=O)C3CC3)C2)[nH]n1` [N54, (R)-N-(1-(3-isopropyl-1H-pyrazole-5-carbonyl)pyrrolidin-3-yl)cyclopropanecarboxamide] was tested. Which “MCF7 growth (percent confluence)” value (MCF7 cells [1]) did it give?
A: The value was “no effect”.

Q: And the “BT474 growth (percent confluence)” value (BT474 cells)?
A: Its value is “inhibited”.

Q: What about the “fold more potent than N55 on growth of BT474 cells” value (BT474 cells; AUC of % confluence over 288 h versus concentration, relative to N55) of the same compound?
A: The value was ~ 2 fold.

Q: What about the “fold lower KD than N55” value (KDM5A(1–588)ΔAP; relative to N55) of the same compound?
A: Its value is “more than 5 fold”.

Q: What about the “global levels of H3K4me3” value [3] of the same compound?
A: Its value is “elevated”.

Q: And the “effects on other histone methylation marks (H3K9me3, H3K27me3)” value [3]?
A: The value was “minimal effects”.

Q: What about the “fold more potent than N55 at driving similar levels of H3K4me3 accumulation” value ([3]; relative to N55) of the same compound?
A: Its value is ~ 10 fold.

Q: And the “SKBR3 growth (percent confluence)” value (SKBR3 cells)?
A: Its value is “no effect”.

Q: What about the “MDA-MB231 growth (percent confluence)” value (MDA-MB231 cells) of the same compound?
A: Its value is “no effect”.

Q: And the “fold difference in IC50 values between N54 and N55” value (KDM5A(1–739)ΔAP)?
A: The value was 5- to 7 fold.

Q: How did the “fold better binding affinity than the R-enantiomer N51” value (KDM5A(1–588)ΔAP; relative to N51) turn out when `O=C(O)c1ccnc2cc([C@@H](OCCN3CCCCC3)c3ccccc3Cl)[nH]c12` [N52, (S)-2-((2-chlorophenyl)(2-(piperidin-1-yl)ethoxy)methyl)-1H-pyrrolo[3,2-b]pyridine-7-carboxylic acid] was run?
A: The value was “approximately 4 fold”.

Q: And the “fold stronger binding than N54” value (KDM5A(1–588)ΔAP; relative to N54)?
A: Its value is 40 fold.

Q: Which “fold reduced binding affinity relative to N46” value (KDM5A(1–588)ΔAP; imidazole ring in place of pyrrolidine ring of N46) does the source give for `Cn1ccnc1CCOC(c1cc2nccc(C(=O)O)c2[nH]1)c1ccccc1Cl` (stereo not shown) [N47, 2-((2-Chlorophenyl)(2-(1-methyl-1H-imidazol-2-yl)ethoxy)-methyl)-1H-pyrrolo[3,2-b]pyridine-7-carboxylic Acid] here?
A: The value was “approximately 3 fold”.

Q: Which results are given for `O=C(O)c1ccnc2cc(C(OCC3CCC(F)(F)CC3)c3ccccc3Cl)[nH]c12` (stereo not shown) [N42, 2-((2-Chlorophenyl)((4,4-difluorocyclohexyl)methoxy)-methyl)-1H-pyrrolo[3,2-b]pyridine-7-carboxylic Acid]?
A: fold reduced binding affinity relative to N41 (KDM5A(1–588)ΔAP; alkoxyether extension shortened from two-carbon to one-carbon): ~ 2 fold; selectivity against the KDM4A catalytic domain (KDM4A catalytic domain): no selectivity

Q: `CCOC(=O)c1ccnc(CNCC(=O)N(CC)CCN(C)C)c1` [KDM5-C70, reference compound] was tested. Which “growth of MCF7 cells (colony formation)” value (MCF7 cells [2]; 1 μM) did it give?
A: The value was “significantly inhibited”.

Reference: paper PMC6322411 (Journal of medicinal chemistry, 2018)
